Reference: PubChem BioAssay AID1259407 (Chemical Carcinogenesis Research Information System (CCRIS), 2018)
The source made the active and inactive calls. No rule for the calls is given here.

System: CCRIS mutagenicity, Ames/micronucleus/aberration tests
Experiment: CCRIS mutagenicity studies
[1] = Test System: AMES SALMONELLA TYPHIMURIUM, Strain/Indicator: TA98, Metabolic Activation: NONE, Method: PREINCUBATION
[2] = Test System: AMES SALMONELLA TYPHIMURIUM, Strain/Indicator: TA100, Metabolic Activation: NONE, Method: PREINCUBATION
[3] = Test System: AMES SALMONELLA TYPHIMURIUM, Strain/Indicator: TA1535, Metabolic Activation: NONE, Method: PREINCUBATION
[4] = Test System: AMES SALMONELLA TYPHIMURIUM, Strain/Indicator: TA98, Metabolic Activation: NONE, Method: STANDARD PLATE
[5] = Test System: AMES SALMONELLA TYPHIMURIUM, Strain/Indicator: TA100, Metabolic Activation: NONE, Method: STANDARD PLATE
[6] = Test System: AMES SALMONELLA TYPHIMURIUM, Strain/Indicator: TA100, Metabolic Activation: RAT, LIVER, S-9, AROCLOR 1254, Method: STANDARD PLATE

Measured: mutagenic call

CCCCCCCCCCCCCC(=O)O[C@@H]1[C@@H](C)[C@@]2(O)[C@@H](C=C(CO)C[C@]3(O)C(=O)C(C)=C[C@@H]23)[C@@H]2C(C)(C)[C@]12OC(C)=O
inactive: End Point: IN VITRO CHROMOSOMAL ABERRATIONS, Test System: CHL/IU CELLS, Metabolic Activation: NONE inactive; negative | End Point: IN VITRO MICRONUCLEUS, Test System: CHL/IU CELLS, Metabolic Activation: NONE inactive; negative

COC(=O)C1=C(C)NC(C)=C(C(=O)OC)C1c1ccccc1[N+](=O)[O-]
inactive: Test System: AMES SALMONELLA TYPHIMURIUM, Strain/Indicator: TA97, Metabolic Activation: HAMSTER, LIVER, S-9, AROCLOR 1254 (10 OR 30%), Method: PREINCUBATION inactive; negative | Test System: AMES SALMONELLA TYPHIMURIUM, Strain/Indicator: TA97, Metabolic Activation: NONE, Method: PREINCUBATION inactive; negative | Test System: AMES SALMONELLA TYPHIMURIUM, Strain/Indicator: TA97, Metabolic Activation: RAT, LIVER, S-9, AROCLOR 1254 (10 OR 30%), Method: PREINCUBATION inactive; negative | Test System: AMES SALMONELLA TYPHIMURIUM, Strain/Indicator: TA98, Metabolic Activation: HAMSTER, LIVER, S-9, AROCLOR 1254 (10 OR 30%), Method: PREINCUBATION inactive; negative | [1] inactive; negative | Test System: AMES SALMONELLA TYPHIMURIUM, Strain/Indicator: TA98, Metabolic Activation: RAT, LIVER, S-9, AROCLOR 1254 (10 OR 30%), Method: PREINCUBATION inactive; negative | Test System: AMES SALMONELLA TYPHIMURIUM, Strain/Indicator: TA100, Metabolic Activation: HAMSTER, LIVER, S-9, AROCLOR 1254 (10 OR 30%), Method: PREINCUBATION inactive; negative | [2] inactive; negative | Test System: AMES SALMONELLA TYPHIMURIUM, Strain/Indicator: TA100, Metabolic Activation: RAT, LIVER, S-9, AROCLOR 1254 (10 OR 30%), Method: PREINCUBATION inactive; negative | Test System: AMES SALMONELLA TYPHIMURIUM, Strain/Indicator: TA1535, Metabolic Activation: HAMSTER, LIVER, S-9, AROCLOR 1254 (10 OR 30%), Method: PREINCUBATION inactive; negative | [3] inactive; negative | Test System: AMES SALMONELLA TYPHIMURIUM, Strain/Indicator: TA1535, Metabolic Activation: RAT, LIVER, S-9, AROCLOR 1254 (10 OR 30%), Method: PREINCUBATION inactive; negative

CCc1ccc(/C=C/c2ccc([N+](=O)[O-])cc2)cc1
active: [4] active; positive | Test System: AMES SALMONELLA TYPHIMURIUM, Strain/Indicator: TA98, Metabolic Activation: RAT, LIVER, S-9, AROCLOR, Method: STANDARD PLATE active; positive | [5] active; positive | Test System: AMES SALMONELLA TYPHIMURIUM, Strain/Indicator: TA100, Metabolic Activation: RAT, LIVER, S-9, AROCLOR, Method: STANDARD PLATE active; positive

COc1ccc(-c2oc3ccccc3c(=O)c2[N+](=O)[O-])cc1[N+](=O)[O-]
active: Test System: AMES SALMONELLA TYPHIMURIUM, Strain/Indicator: TA100, Metabolic Activation: RAT LIVER S-9, AROCLOR 1254, Method: STANDARD PLATE active; positive | Test System: AMES SALMONELLA TYPHIMURIUM, Strain/Indicator: YG1042, Metabolic Activation: RAT LIVER S-9, AROCLOR 1254, Method: STANDARD PLATE active; positive

c1cc2ccc3cc4cccc5ccc6cc(c1)c2c3c6c54
active: [6] active; positive

[O]=[V]([OH])([OH])[OH]
inactive: End Point: IN VIVO MICRONUCLEUS, Test System: POLYCHROMATIC ERYTHROCYTES, Species: MOUSE, Strain/Sex: (102/E1 X C3H/E1)F1/MALE, Route: IP INJECTION inactive; negative

O=C1CCCCCCCCCCCCCCO1
inactive: [1] inactive; negative | Test System: AMES SALMONELLA TYPHIMURIUM, Strain/Indicator: TA98, Metabolic Activation: RAT LIVER S-9, PHENOBARBITAL AND BETA-NAPHTHOFLAVONE, Method: PREINCUBATION inactive; negative | [2] inactive; negative | Test System: AMES SALMONELLA TYPHIMURIUM, Strain/Indicator: TA100, Metabolic Activation: RAT LIVER S-9, PHENOBARBITAL AND BETA-NAPHTHOFLAVONE, Method: PREINCUBATION inactive; negative | Test System: AMES SALMONELLA TYPHIMURIUM, Strain/Indicator: TA102, Metabolic Activation: NONE, Method: PREINCUBATION inactive; negative | Test System: AMES SALMONELLA TYPHIMURIUM, Strain/Indicator: TA102, Metabolic Activation: RAT LIVER S-9, PHENOBARBITAL AND BETA-NAPHTHOFLAVONE, Method: PREINCUBATION inactive; negative | Test System: AMES SALMONELLA TYPHIMURIUM, Strain/Indicator: TA104, Metabolic Activation: NONE, Method: PREINCUBATION inactive; negative | Test System: AMES SALMONELLA TYPHIMURIUM, Strain/Indicator: TA104, Metabolic Activation: RAT LIVER S-9, PHENOBARBITAL AND BETA-NAPHTHOFLAVONE, Method: PREINCUBATION inactive; negative | [3] inactive; negative | Test System: AMES SALMONELLA TYPHIMURIUM, Strain/Indicator: TA1535, Metabolic Activation: RAT LIVER S-9, PHENOBARBITAL AND BETA-NAPHTHOFLAVONE, Method: PREINCUBATION inactive; negative | Test System: AMES SALMONELLA TYPHIMURIUM, Strain/Indicator: TA1537, Metabolic Activation: NONE, Method: PREINCUBATION inactive; negative | Test System: AMES SALMONELLA TYPHIMURIUM, Strain/Indicator: TA1537, Metabolic Activation: RAT LIVER S-9, PHENOBARBITAL AND BETA-NAPHTHOFLAVONE, Method: PREINCUBATION inactive; negative | Test System: E.COLI, Strain/Indicator: WP2UVRA/PKM101, Metabolic Activation: NONE, Method: PREINCUBATION inactive; negative | Test System: E.COLI, Strain/Indicator: WP2UVRA/PKM101, Metabolic Activation: RAT LIVER S-9, PHENOBARBITAL AND BETA-NAPHTHOFLAVONE, Method: PREINCUBATION inactive; negative | Test System: E.COLI, Strain/Indicator: WP2UVRA, Metabolic Activation: NONE, Method: PREINCUBATION inactive; negative | Test System: E.COLI, Strain/Indicator: WP2UVRA, Metabolic Activation: RAT LIVER S-9, PHENOBARBITAL AND BETA-NAPHTHOFLAVONE, Method: PREINCUBATION inactive; negative

Nc1ccc(N)c2c1C(=O)c1cccc([N+](=O)[O-])c1C2=O
active: [4] active; positive | Test System: AMES SALMONELLA TYPHIMURIUM, Strain/Indicator: TA98, Metabolic Activation: RAT, LIVER, S-9, AROCLOR 1254, Method: STANDARD PLATE active; positive | Test System: AMES SALMONELLA TYPHIMURIUM, Strain/Indicator: TA1537, Metabolic Activation: NONE, Method: STANDARD PLATE active; positive | Test System: AMES SALMONELLA TYPHIMURIUM, Strain/Indicator: TA1538, Metabolic Activation: NONE, Method: STANDARD PLATE active; positive | Test System: AMES SALMONELLA TYPHIMURIUM, Strain/Indicator: TA1538, Metabolic Activation: RAT, LIVER, S-9, AROCLOR 1254, Method: STANDARD PLATE active; positive
inactive: [5] inactive; negative | [6] inactive; negative | Test System: AMES SALMONELLA TYPHIMURIUM, Strain/Indicator: TA1535, Metabolic Activation: NONE, Method: STANDARD PLATE inactive; negative | Test System: AMES SALMONELLA TYPHIMURIUM, Strain/Indicator: TA1535, Metabolic Activation: RAT, LIVER, S-9, AROCLOR 1254, Method: STANDARD PLATE inactive; negative | Test System: AMES SALMONELLA TYPHIMURIUM, Strain/Indicator: TA1537, Metabolic Activation: RAT, LIVER, S-9, AROCLOR 1254, Method: STANDARD PLATE inactive; negative | Test System: AMES SALMONELLA TYPHIMURIUM, Strain/Indicator: TA1978, Metabolic Activation: NONE, Method: STANDARD PLATE inactive; negative
